# Test results reported in US5059625A, “Polyglycidol amine oxide surfactants having antimicrobial activity” (Olin Corporation, priority 1990, dated 1991).
# How the values were obtained:
# [1] = Surface tension (ASTM Designation D1331-56); assay type: physicochemical; conditions: 0.1 wt. % concentration; ASTM D1331-56
# Source text: The surface tensions (ASTM Designation D1331-56) of the products at 0.1 wt. % concentration were as follows: […]
# [2] = tested on: STAPHYLOCOCCUS AUREUS (Gram positive); assay: Minimum Inhibitory Concentration (MIC) test; assay type: cell-based
# Protocol: (§1) Minimum Inhibitory Concentration (MIC's) were determined and compared to a nonylphenol-glycidol based surfactant.
# A[…] (Fungus) = assay: Minimum Inhibitory Concentration (MIC) test; assay type: cell-based; conditions: Aspergillus niger (fungus)
# Protocol: as §1
# E[…] (Gram Negative) = assay: Minimum Inhibitory Concentration (MIC) test; assay type: cell-based; conditions: Escheridida coli (Gram negative)
# Protocol: as §1
# [3] = Solubility in 50% sodium hydroxide solution; assay type: physicochemical
# Protocol: A 500 ml, 3-necked round bottom flask was fitted with a mechanical stirrer, thermometer, nitrogen inlet, dropping funnel and vent. Under the nitrogen atmosphere, Armeen CD^(1), 15 g (0.075 mole) was placed in the flask and the contents heated to 138° C. Glycidol in an amount of 16.67 g (0.225 mole) was placed in the dropping funnel and glycidol addition to the Armeen CD was initiated at a rate of approximately 0.15 g/minute. Reaction temperature was maintained at 140°-152° C. and glycidol addition was completed in about 2 hours. The reaction mixture was stirred and heated at reaction temperature an additional 2 hours. The flask and its contents were then cooled and the product removed. […] This product was referred to as cocamine 3-mole glycidol adduct and its molecular weight was 422.
# All three products were soluble in 50% sodium hydroxide solution.
Substance,surface tension [1],Minimum Inhibitory Concentration [2],Minimum Inhibitory Concentration (A[…] (Fungus)),Minimum Inhibitory Concentration (E[…] (Gram Negative)),solubility in 50% sodium hydroxide solution [3]
Armeen CD-3m glycidol amine [Example I],32.3 dynes/cm,32 PPM,128 PPM,256 PPM,
cocamine 3-mole glycidol adduct,,,,,soluble and clear
